For data set [1], the target named is T1, norepinephrine transporter (NET) (Homo sapiens, UniProt P23975).
T1 construct: expressed in transfected cells
Put plainly: Inhibition of human transporter in stable epithelial cell lines (NET). The note with it: average of two replicates (n=2). It is filed as cell-based. The procedure: Compounds were tested for their ability to inhibit the reuptake of the monoamine neurotransmitters dopamine (DA), noradrenaline (NA), and serotonin (5-HT) in synaptosomes as described in WO 97/16451 (NeuroSearch A/S). In addition, the compounds were tested in human epithelial cells expressing human transporters for 5-HT (SERT), dopamine (DAT), and norepinephrine (NET).
The results are the average of two-replicates per experiment (n=2).

The subject of data set [2] is Dopamine (DA). Put plainly: Microdialysis studies in mice brain (cortex, striatum). It is filed as in vivo. The note with it: 10 mg/kg s.c., n=1-2. How it is done:
In a small subset of mice, microdialysis was performed with a probe placed in either the striatum or cortex by use of stereotaxis.

In data set [3] the test system is intradermal capsaicin model. As to the kind of experiment: Phase I crossover study, intradermal capsaicin model: pharmacodynamics. It is filed as in vivo, human. The following applies: for Pain Score of Brush-evoked Allodynia Using an NRS, Adjusted Mean (MMRM) / Subjective Rating of Pain, Adjusted Mean (MMRM): overall, all timepoints, N=24; for Pain Score of Brush-evoked Allodynia Using an NRS, Adjusted Mean (MMRM): placebo 2.0; for Subjective Rating of Pain, Adjusted Mean (MMRM): placebo 17.1. From the text: Participants. The volunteers were males aged 18 to 55 years with a body mass index (BMI) of 18 to 30 kg/m2. They were healthy as determined by a responsible physician, based on a medical evaluation including medical history, physical examination, concomitant medication, vital signs, 12-lead ECG, and clinical laboratory evaluations. The participants must have been in good general health with a skin type compatible with the measures and without significant skin allergies, pigmentary disorders or any active dermatological conditions. […] The participants provided written informed consent, which included compliance with the requirements and restrictions listed in the consent form, including the use of a condom during the trial and for 3 months after their final dose of trial medication, if their partner was a woman of childbearing potential.
Clinical and laboratory data. Prior to and 15, 30, 60, 90 and 120 minutes after administration of capsaicin, measurements of pain, hyperalgesia, allodynia and AF were performed. At 2 hours post-capsaicin injection, subjects completed a quantitative sensory testing (QST) battery at two sites on the volar surface of each forearm. One site was the most recent capsaicin injection site, and the other was at an equivalent point on the opposite forearm. […] There was a minimum washout period of 5 days between treatment periods.
Reconstitution was performed by a Pharmacist at the clinical site prior to dosing.
(§1) In order to maintain the blind, a double dummy approach was used.
Subjects were randomised to receive a single administration of a treatment combination during each treatment period. All subjects received each treatment combination once only.
Evaluation methods: Pharmacodynamics was assessed through pain measurements (response to ID injection of capsaicin, measurement of pain using a visual analogue scale, area and pain score of hyperalgesia, area and pain score of allodynia, and AF) and the ID capsaicin model. Subjects also completed a QST battery at two sites on the volar surface of either forearm. The QST battery included the following tests: thermal detection and pain thresholds, mechanical detection and pain thresholds, stimulus/response functions, wind-up ratio and pressure pain threshold.
For measurement of pain, a visual analogue scale (VAS) was used. The VAS consisted of a 100 mm line, with 0 representing "no pain" and 100 representing "worst pain imaginable". Subjects were asked to mark the VAS using a single vertical stroke at the point they considered to appropriately reflect their level of pain from the injection of capsaicin (not general pain). A new VAS was provided for each time point and subjects were not allowed to see their previous VAS responses. The VAS was scored by measuring from the left-hand end of the scale to the point where the subject had marked the line, and the distance in mm was recorded.
Response to pain was also assessed by a numeric rating scale (NRS). For example, by using an 11-point numeric rating scale ranging from 0 ("no pain") to 10 ("worst possible pain") and asking the subject to rate their pain. A NRS scale of 0 to 100 was also used in some assesments.
The thermal tests were performed using a thermode probe (Medoc). Cold and warm detection thresholds were measured first, then cold pain and heat pain thresholds were determined. The mean threshold temperature of 3 consecutive measurements was calculated. All thresholds were obtained with ramped stimuli (1°C/sec) that were terminated when the subject pressed a button. For thermal detection thresholds the ramp back to baseline was 1°C/sec, while for thermal pain thresholds this ramp was chosen at maximum device capacity resulting in approximately a nominal 5°C/sec.
The mechanical detection threshold was measured with a standardised set of modified von Frey nylons that exerted forces upon bending between 0.25 and 512 mN graded by a factor of 2 (1 to 2 seconds contact time). […]

The nature of data set [4]: Phase I crossover study, intradermal capsaicin model: safety evaluation (TEAEs). It is filed as in vivo, human. How it is done: as §1
Safety was assessed through AE reporting, 12-lead ECG, vital signs, physical examinations and clinical laboratory evaluations. Pharmacokinetics was assessed by blood sampling.

The term IC50 denotes the concentration needed to halve the response being measured. High values mean a need for much substance, low ones inhibition by little substance.

Molecules are shown by their SMILES. Entries after “also recorded” stand apart in the source; their conditions may differ.

T1 sequence (P23975 whole entry): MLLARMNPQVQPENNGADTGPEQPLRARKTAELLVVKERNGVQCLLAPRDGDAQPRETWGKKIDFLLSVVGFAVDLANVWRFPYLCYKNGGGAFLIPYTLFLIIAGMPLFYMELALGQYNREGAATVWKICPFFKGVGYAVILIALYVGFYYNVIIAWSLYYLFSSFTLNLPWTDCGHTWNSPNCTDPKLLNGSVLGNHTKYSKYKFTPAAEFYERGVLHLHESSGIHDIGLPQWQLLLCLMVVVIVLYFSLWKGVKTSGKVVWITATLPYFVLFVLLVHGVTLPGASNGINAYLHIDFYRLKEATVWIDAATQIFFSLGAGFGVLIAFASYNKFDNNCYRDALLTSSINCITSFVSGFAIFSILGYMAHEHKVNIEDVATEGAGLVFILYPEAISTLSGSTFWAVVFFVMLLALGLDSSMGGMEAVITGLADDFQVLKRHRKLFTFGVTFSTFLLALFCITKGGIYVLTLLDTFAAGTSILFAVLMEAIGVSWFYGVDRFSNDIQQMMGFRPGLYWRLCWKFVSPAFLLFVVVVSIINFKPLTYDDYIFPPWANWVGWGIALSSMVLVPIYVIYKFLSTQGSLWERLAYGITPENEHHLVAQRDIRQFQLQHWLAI

`COc1cc2ccc(O[C@@H]3C[C@H]4CC[C@@H](C3)N4)cc2oc1=O` [IP2015, exo-7-[(8-azabicyclo[3.2.1]octan-3-yl)oxy]-3-methoxy-chromen-2-one] registered an IC50 in data set [1] of 0.095 µM. In addition, the “Dopamine (DA) elevation in cortex” value in data set [2] is “increased; also recorded: most pronounced”. In addition, the “Dopamine (DA) elevation in striatum” value in data set [2] was “less and only some elevation”. Moreover, the “area of brush-evoked allodynia compared to placebo” value in data set [3] (5 mg IP2015, 120 min after capsaicin injection, P=0.049) is “significantly lowered”. Moreover, the entries for the “Pain Score of Brush-evoked Allodynia Using an NRS, Adjusted Mean (MMRM)” value in data set [3] (5 mg IP2015) and in data set [3] (10 mg IP2015) were 1.8 and 1.6, respectively. The “Subjective Rating of Pain, Adjusted Mean (MMRM)” value was found to be 15.6 mm in data set [3] (5 mg IP2015 single oral dose) and 11.7 mm in data set [3] (10 mg IP2015 single oral dose). The “adjusted mean pain score of hyperalgesia compared to placebo” value in data set [3] (5 mg and 10 mg IP2015, 300 mg pregabalin, all post-capsaicin injection timepoints) is “lower”. Moreover, the “average decrease in hyperalgesic area across all timepoints compared to placebo” value in data set [3] (10 mg IP2015) came to 4 cm^2. In addition, the “decrease of subjective rating of pain compared to placebo” value came to 7.2 mm in data set [3] (10 mg IP2015, 15 min post capsaicin); 8.3 mm in data set [3] (10 mg IP2015, 30 min post capsaicin); 7.5 mm in data set [3] (10 mg IP2015, 60 min post capsaicin). In addition, the “overall increase in warm detection threshold between test and control areas (QST)” value in data set [3] (10 mg IP2015, p = 0.013, post-hoc analysis) is reported as “significant”. For the same compound, the “pressure pain threshold (QST)” value in data set [3] (10 mg IP2015, post-hoc analysis) was “best effects”. Moreover, in data set [3] (IP2015 versus pregabalin, post-hoc analysis), the “thermal sensory limen warm test (QST)” value was “improved effects compared to pregabalin”. Besides, the “severity of all TEAEs” value in data set [4] (5 mg IP2015 and 10 mg IP2015) is listed as “mild”. In addition, the “incidence of TEAEs (share of subjects)” value in data set [4] (5 mg IP2015 single oral dose) was determined as 29.2%; in data set [4] (10 mg IP2015 single oral dose), 54.2%. In addition, the “number of TEAEs reported” value in data set [4] (5 mg IP2015 single oral dose) stood at 10 events; in data set [4] (10 mg IP2015 single oral dose), 19 events. Besides, the “subjects reporting TEAEs” value is reported as 7 subjects in data set [4] (5 mg IP2015 single oral dose) and 13 subjects in data set [4] (10 mg IP2015 single oral dose).

These data come from EP4608400B1, “COMPOUND FOR TREATMENT OF PAIN” (Initiator Pharma A/S, priority 2022, dated 2024).
